Data reported in patent EP2794556B1, “BIS-(ARYL/HETEROARYL)-METHYLENE COMPOUNDS, PHARMACEUTICAL COMPOSITIONS CONTAINING SAME AND THEIR USE FOR TREATING CANCER” (Gleason, James L., priority 2011, dated 2013).

Legend:
SK-MEL-5 = experiment: NCI 60 cell panel
SK-MEL-2 = experiment: NCI 60 cell panel
SW-620 = experiment: NCI 60 cell panel
ACHN = experiment: NCI 60 cell panel
HT29 = experiment: NCI 60 cell panel
EKVX = experiment: NCI 60 cell panel
RXF 393 = experiment: NCI 60 cell panel
A549/A/TCC = experiment: NCI 60 cell panel
SCC4 cells = experiment: MTS cell proliferation assay; type: cell-based, human; settings: vitamin D resistant SCC4 cells, Figures 7c, 8 and 9
Excerpt: Dose-dependent effects of compounds on cell cycle progression was monitored using a CellTiter 96 Aqueous Non-Radioactive Cell Proliferation Assay Kit (Promega). The assay composed of solutions of a novel tetrazolium compound (MTS) and an electron coupling reagent (phenazine methosulfate; PMS). MTS is reduced by metabolically active cells into a soluble formazan product that absorbs at 490nm. The quantity of formazan product absorbing at 490nm is directly proportional to the number of living cells.

SK-OV-3 = experiment: NCI 60 cell panel
HS 578T = experiment: NCI 60 cell panel
HOP-92 = experiment: NCI 60 cell panel
HL-60(TB) = experiment: NCI 60 cell panel
BT-549 = experiment: NCI 60 cell panel
SR = experiment: NCI 60 cell panel
CCRF-CEM = experiment: NCI 60 cell panel
SNB-19 = experiment: NCI 60 cell panel
CAKI-1 = experiment: NCI 60 cell panel
T-47D = experiment: NCI 60 cell panel
MALME-3M = experiment: NCI 60 cell panel
AT84 cells = experiment: EdU cell growth assay; settings: AT84 cells
Method: EdU cell growth assay. Click-iT EdU Alexa Fluor high-throughput imaging (HCS) assay for cell proliferation. HCS assays were performed on AT84 mouse squamous carcinoma cell line (ATCC) following the manufacturer's instruction (Molecular Probes, Invitrogen). […] All samples were in triplicate.

MDA-MB-435 = experiment: NCI 60 cell panel

Q: How did the GI50 (SK-MEL-5; Homo sapiens, SK-MEL-5) turn out when `CCC(CC)(c1ccc(OCC(=O)NO)c(C)c1)c1ccc(OCC(O)C(C)(C)C)c(C)c1` (racemic) [JF-B01, N-Hydroxy-2-(4-(3-(4-(2-hydroxy-3,3-dimethylbutoxy)-3-methylphenyl)pentan-3-yl)-2-methylphenoxy)acetamide] was run?
A: 1.39 µM

Q: What about the CC50 (SK-MEL-5; Homo sapiens, SK-MEL-5, read-out: LC50) of the same compound?
A: 5.58 µM

Q: What about the TGI (SK-MEL-5; Melanoma, SK-MEL-5) of the same compound?
A: 2.79E-6

Q: What about the GI50 (SK-MEL-2; Homo sapiens, SK-MEL-2) of the same compound?
A: 1.9 µM

Q: What about the CC50 (SK-MEL-2; Homo sapiens, SK-MEL-2, read-out: LC50) of the same compound?
A: 30 µM

Q: What about the TGI (SK-MEL-2; Melanoma, SK-MEL-2) of the same compound?
A: 5.24E-6

Q: What about the TGI (SW-620; Colon Cancer, SW-620) of the same compound?
A: 1.25E-5

Q: And the GI50 (SW-620; Homo sapiens, SW-620)?
A: 2.3 µM

Q: And the CC50 (SW-620; Homo sapiens, SW-620, read-out: LC50)?
A: 35.4 µM

Q: And the GI50 (ACHN; Homo sapiens)?
A: 3.2 µM

Q: And the CC50 (ACHN; Homo sapiens, read-out: LC50)?
A: 35.6 µM

Q: And the TGI (ACHN; Renal Cancer)?
A: 1.27E-5

Q: And the TGI (HT29; Colon Cancer, HT29)?
A: 1.00E-5

Q: What about the GI50 (HT29; Homo sapiens, HT-29) of the same compound?
A: 1.93 µM

Q: And the CC50 (HT29; Homo sapiens, HT-29, read-out: LC50)?
A: 31.7 µM

Q: And the GI50 (EKVX; Homo sapiens)?
A: 2.87 µM

Q: And the CC50 (EKVX; Homo sapiens, read-out: LC50)?
A: 35.3 µM

Q: And the TGI (EKVX; Non-Small Cell Lung Cancer)?
A: 1.24E-5

Q: What about the GI50 (RXF 393; Homo sapiens, RXF 393) of the same compound?
A: 5.34 µM

Q: And the CC50 (RXF 393; Homo sapiens, RXF 393, read-out: LC50)?
A: 47.5 µM

Q: And the TGI (RXF 393; Renal Cancer, RXF 393)?
A: 1.91E-5

Q: What about the GI50 (A549/A/TCC; Homo sapiens, A549) of the same compound?
A: 3.62 µM

Q: What about the CC50 (A549/A/TCC; Homo sapiens, A549, read-out: LC50) of the same compound?
A: 40.8 µM

Q: What about the TGI (A549/A/TCC; Non-Small Cell Lung Cancer, A549/A/TCC) of the same compound?
A: 1.43E-5

Q: What about the antiproliferative potency (SCC4 cells) of the same compound?
A: low micromolar potency

Q: And the GI50 (SK-OV-3; Homo sapiens, SK-OV-3)?
A: 12.2 µM

Q: And the CC50 (SK-OV-3; Homo sapiens, SK-OV-3, read-out: LC50)?
A: 49.6 µM

Q: And the TGI (SK-OV-3; Ovarian Cancer, SK-OV-3)?
A: 2.46E-5

Q: And the TGI (HS 578T; Breast Cancer, HS 578T)?
A: 2.65E-5

Q: What about the GI50 (HS 578T; Homo sapiens, Hs-578T) of the same compound?
A: 8.8 µM

Q: What about the CC50 (HS 578T; Homo sapiens, Hs-578T, read-out: LC50) of the same compound?
A: 72.5 µM

Q: What about the GI50 (HOP-92; Homo sapiens, HOP-92) of the same compound?
A: 3.08 µM

Q: What about the CC50 (HOP-92; Homo sapiens, HOP-92, read-out: LC50) of the same compound?
A: 49.2 µM

Q: What about the TGI (HOP-92; Non-Small Cell Lung Cancer, HOP-92) of the same compound?
A: 1.53E-5

Q: What about the GI50 (HL-60(TB); Homo sapiens, HL-60) of the same compound?
A: 0.944 µM

Q: And the CC50 (HL-60(TB); Homo sapiens, HL-60, read-out: LC50)?
A: 8.8 µM

Q: And the TGI (HL-60(TB); Leukemia, HL-60(TB))?
A: 2.93E-6

Q: What about the TGI (BT-549; Breast Cancer, BT-549) of the same compound?
A: 7.74E-6

Q: What about the GI50 (BT-549; Homo sapiens, BT-549) of the same compound?
A: 2.03 µM

Q: And the CC50 (BT-549; Homo sapiens, BT-549, read-out: LC50)?
A: 28.5 µM

Q: What about the GI50 (SR; Homo sapiens) of the same compound?
A: 1.21 µM

Q: What about the CC50 (SR; Homo sapiens, read-out: LC50) of the same compound?
A: 24.9 µM

Q: And the TGI (SR; Leukemia)?
A: 3.91E-6

Q: And the GI50 (CCRF-CEM; Homo sapiens)?
A: 0.576 µM

Q: And the CC50 (CCRF-CEM; Homo sapiens, read-out: LC50)?
A: 42.2 µM

Q: And the TGI (CCRF-CEM; Leukemia)?
A: 4.80E-6

Q: What about the TGI (SNB-19; CNS Cancer, SNB-19) of the same compound?
A: 1.12E-5

Q: What about the GI50 (SNB-19; Homo sapiens, SNB-19) of the same compound?
A: 2.41 µM

Q: What about the CC50 (SNB-19; Homo sapiens, SNB-19, read-out: LC50) of the same compound?
A: 33.5 µM

Q: And the GI50 (CAKI-1; Homo sapiens, CAKI-1)?
A: 4.98 µM

Q: And the CC50 (CAKI-1; Homo sapiens, CAKI-1, read-out: LC50)?
A: 41.3 µM

Q: And the TGI (CAKI-1; Renal Cancer, CAKI-1)?
A: 1.71E-5

Q: What about the TGI (T-47D; Breast Cancer, T-47D) of the same compound?
A: 6.69E-6

Q: And the GI50 (T-47D; Homo sapiens, T47D)?
A: 2.21 µM

Q: What about the CC50 (T-47D; Homo sapiens, T47D, read-out: LC50) of the same compound?
A: 27.1 µM

Q: What about the GI50 (MALME-3M; Homo sapiens, Malme-3M) of the same compound?
A: 2.33 µM

Q: And the CC50 (MALME-3M; Homo sapiens, Malme-3M, read-out: LC50)?
A: 35.7 µM

Q: And the TGI (MALME-3M; Melanoma, MALME-3M)?
A: 1.07E-5

Q: And the “antiproliferative potency, fold less potent than 1,25D” value (AT84 cells)?
A: 10 fold

Q: What about the GI50 (MDA-MB-435; Homo sapiens, MDA-MB-435) of the same compound?
A: 2.08 µM

Q: What about the CC50 (MDA-MB-435; Homo sapiens, MDA-MB-435, read-out: LC50) of the same compound?
A: 16.7 µM

Q: And the TGI (MDA-MB-435; Melanoma, MDA-MB-435)?
A: 5.20E-6
